Measurements published in patent US7101533B2, “Agent for inducing receptor potential” (Kabushiki Kaisha Hayashibara Seibutsu Kagaku Kenkyujo, priority 2002, dated 2006).

Test system: retinal nerve cells
Assay: intracellular calcium experimental method in cultured chick embryo retinal cells with photostimulation (Fluo-4 fluorescence and intracellular potential)
Format: cell-based
Text: All the above polymethine organic dye compounds can be obtained in the desired amount either by the method disclosed in “Kanko-Shikiso” (Photosynthetic Dyes), pp. 11–31, edited by Masaaki Hayami, published by Sangyo Tosho Publisher on Oct. 17, 1997; or in accordance therewith. In case the compounds are commercially available, they can be optionally purified prior to use. Evaluation of whether organic dye compounds evoke receptor potential in response to photostimulation in the optic nerve can be determined in accordance with the intracellular calcium experiment method disclosed in “Jikken-Igaku” (Experimental Medicine), Vol. 7, No. 6, edited by Hideaki Karaki et al., published on Apr. 5, 1989 by Yodosha, Co., Ltd., Tokyo, Japan, with a modification that an organic dye compound to be tested coexists in animal retinal cells cultured in a nutrient culture medium containing a fluorescent calcium indicator, followed by detecting the intensity of fluorescence emitted from the indicator or of the electric potential generated intracellularly. […]
Thereafter, Fluo-4 acetoxymethyl ester, commercialized by Molecular Probe, Oregon, U.S.A., a fluorescent calcium indicator, was added to each well of the culture plates to give a concentration of 10 μM, incubated at 37° C. for 30 min, and further incubated for another 30 min similarly as above except for omitting Fluo-4 acetoxymethyl ester. […] The organic dye compounds in Table 1 were respectively dissolved in dimethylsulfoxide and irradiated with a light having a wavelength of 470 to 490 nm to excite Fluo-4 acetoxymethyl ester before or after being added to each culture in each well to give a concentration of 0.0005 to 0.5 μg/ml, followed by detecting the intensity of fluorescence and the intracellular potential at a wavelength of around 510 to 550 nm emitted from the excited Fluo-4 acetoxymethyl ester. […]

## CCCC1=NN(c2ccc(S(=O)(=O)[O-])cc2)C(=O)C1=CC=C(C=Cc1c(CCC)nn(-c2ccc(S(=O)(=O)[O-])cc2)c1[O-])c1ccccc1.[Na+].[Na+].[Na+] [Chemical Formula 14]
As above, with 2.5 μM of calcicludine (antagonist of L-, N-, P-type high-threshold calcium channels)
  Fluorescent intensity With calcicludine: Unchanged
Chick embryo retinal nerve cells loaded with Fluo-4 acetoxymethyl ester, dye 0.0005 to 0.5 μg/ml, light 470 to 490 nm, emission around 510 to 550 nm, no calcicludine
  Fluorescent intensity Without calcicludine: Increased
Receptor potential observed as intracellular potential, dye 0.0005 to 0.5 μg/ml, light 470 to 490 nm, absence of calcicludine
  Intracellular potential: Detected
